“Also recorded” adds a separate entry of the source.
What was measured:
H3K4me3 in the GCL = test: Immunofluorescence of H3K4me3 in dentate gyrus GCL after oral AR-42; type: in vivo, mouse
From the text: Kmt2d^+/βGeo mice, also named Mll2Gt^(RRt024)Byg, were acquired from Bay Genomics (University of California). All experimental mice were on a mixed C57BL/6J and 129/SvEv background. Expected Mendelian ratios were observed when heterozygous animals were bred to wild-type. In heterozygous crosses, however, there was uniform embryonic lethality of homozygotes by ED12, the earliest developmental stage assayed. For treatment with AR-42, mice were orally gavaged daily with drug (Selleck Chemicals, Houston, Tex.) solubilized in vehicle (0.5% methylcellulose, 0.1% Tween-80, water) or with vehicle alone. Drug delivery information was kindly provided by Drs. […] For quantification of DCX positive cells, doses of 0, 5, 10 and 25 mg/kg/day were used. […] Maxillary protrusion was evaluated by ten investigators blinded to genotype and they were asked to rate maxillary protrusion on radiographs as either large (2) or small (1). […]
Z-stack images of slides were taken at either 10× using Zeiss Axiovert 200 with 510-Meta confocal module (Carl Zeiss, Jena, GER) or 25× using Zeiss AxioExaminer with 710NLO-Meta multiphoton (Carl Zeiss, Jena, GER). From 10× pictures, the GCL was highlighted and fluorescent intensities for both DAPI and H3K4me3 were measured at the midpoint of the entire z-stack (Zen software, Carl Zeiss, Jena, GER) with the value for Kmt2d^+/+ animals set equal to one. […]

genome-wide H3K4me3 = test: ChIP-seq of H3K4me3 in spleen cells of treated mice; type: in vivo, mouse; details: 10 mg/kg/day, spleen cells of Kmt2d+/βGeo mice
Description: Spleens were dissected from eight mice, four from each kmt2d genotype (+/βGeo or +/+) where half of each genotype was treated with AR-42 and half with vehicle only. Spleens were minced and passed through a 40 μm cell strainer to obtain single cell suspensions. 10 million cells were used for each ChIP-seq experiment following the native chromatin immunoprecipitation protocol, as previously described (Gilfillan et al. (2012) BMC Genomics 13:645), using a ChIP-grade antibody against H3K4me3 (9727, Cell Signaling Technology, Beverly, Mass.).
Sequencing was performed using a MiSeq system (Illumina, San Diego, Calif.). 4.8-9.6 million paired-end 26 bp reads were obtained per sample (Table 1; nReads=number of reads, alignRate=fraction aligned to genome; FRIP=fraction of reads in peaks). Reads were aligned to the m. musculus genome, version mm10, using Bowtie 2 (Langmead and Salzberg (2012) Nat. Methods. 9: 357-9). Each sample was examined with regard to alignment rate as well as FRIP (fraction of reads in peaks), a measure of the ChIP efficiency (Table 1). […] For analysis, reads were merged into one meta-sample and peak calling was performed using MACS version 1.4.2 (Zhang et al. (2008) Genome Biol. 9: R137). […] This created a peak by sample matrix of read counts. […] Fold change and overall abundance was calculated as per edgeR. […]

SMILES: CC(C)[C@H](C(=O)Nc1ccc(C(=O)NO)cc1)c1ccccc1 [AR-42]
- H3K4me3 in the GCL (H3K4me3 in the GCL; 25 mg/kg/day, oral, two weeks): increased H3K4 trimethylation; also recorded: increased H3K4me3
- H3K4me3 in the GCL (H3K4me3 in the GCL; 5 and 10 mg/kg/day, both genotypes): dose-dependent increase in H3K4me3
- genome-wide deficiency of H3K4me3 (ChIP-seq) (genome-wide H3K4me3): genome-wide increase in H3K4me3; also recorded: overcorrection; also recorded: improved; also recorded: recovered; also recorded: normalized (but somewhat over corrected)

From US10246498B2, “Genetically encoded histone reporter allele constructs” (THE JOHNS HOPKINS UNIVERSITY, priority 2014, dated 2019)
